The source of these data is ChEMBL document CHEMBL1126118, “Synthesis and biological activity of ketomethylene pseudopeptide analogues as thrombin inhibitors” (J Med Chem, 1992).

Test [1] is filed under the species Homo sapiens. Description: Concentration required to double the human alpha-thrombin induced clotting time of human plasma. It is filed as functional.
A further test concerns the target Prothrombin (Homo sapiens, UniProt P00734). Description: In vitro inhibitory activity against thrombin.
Another test addresses Coagulation factor X (Homo sapiens, UniProt P00742). Nature of the test: In vitro inhibitory activity against Coagulation factor X.
The species entered for test [2] is Homo sapiens. Nature of the test: Concentration required to double the activated partial thromboplastin time of human plasma was measured. The test is classed as functional.
The next test addresses Kallikrein-1 (Homo sapiens, UniProt P06870). Nature of the test: In vitro inhibitory activity against Kallikrein.
Another test deals with Plasminogen (Rattus norvegicus, UniProt Q01177). Nature of the test: In vitro inhibitory activity against plasmin.
The target of test [3] is Urokinase-type plasminogen activator (Homo sapiens, UniProt P00749). Nature of the test: In vitro inhibitory activity against Urokinase-type plasminogen activator.

Molecules are shown by their SMILES.

Chain of Coagulation factor X (P00742 41-179 limits assumed): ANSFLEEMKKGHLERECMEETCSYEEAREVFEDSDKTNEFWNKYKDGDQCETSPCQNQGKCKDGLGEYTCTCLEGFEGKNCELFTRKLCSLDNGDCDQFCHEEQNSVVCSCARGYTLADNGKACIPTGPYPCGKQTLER
Chain of Coagulation factor X (P00742 235-488 limits assumed): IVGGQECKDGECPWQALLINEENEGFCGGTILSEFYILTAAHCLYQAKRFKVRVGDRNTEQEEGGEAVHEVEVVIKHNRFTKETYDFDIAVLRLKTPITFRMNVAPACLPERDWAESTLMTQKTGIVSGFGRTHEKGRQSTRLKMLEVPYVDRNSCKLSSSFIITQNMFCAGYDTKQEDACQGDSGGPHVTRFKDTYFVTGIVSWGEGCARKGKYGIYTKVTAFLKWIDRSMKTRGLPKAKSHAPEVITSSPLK
Chain of Plasminogen (Q01177 97-581 limits assumed): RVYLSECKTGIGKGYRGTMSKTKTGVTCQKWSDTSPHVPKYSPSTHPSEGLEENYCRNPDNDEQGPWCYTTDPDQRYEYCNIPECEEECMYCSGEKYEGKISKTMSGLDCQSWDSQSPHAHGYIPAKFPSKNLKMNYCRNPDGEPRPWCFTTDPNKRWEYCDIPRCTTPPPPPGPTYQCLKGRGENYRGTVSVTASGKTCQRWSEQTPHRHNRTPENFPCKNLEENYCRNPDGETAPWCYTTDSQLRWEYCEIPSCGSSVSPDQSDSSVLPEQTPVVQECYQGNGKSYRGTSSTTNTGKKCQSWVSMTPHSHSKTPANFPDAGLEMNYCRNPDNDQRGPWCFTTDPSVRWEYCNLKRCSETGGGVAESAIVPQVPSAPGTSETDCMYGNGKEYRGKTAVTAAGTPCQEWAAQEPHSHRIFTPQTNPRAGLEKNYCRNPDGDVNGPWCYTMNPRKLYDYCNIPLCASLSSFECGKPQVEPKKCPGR
Chain of Plasminogen (Q01177 582-812 limits assumed): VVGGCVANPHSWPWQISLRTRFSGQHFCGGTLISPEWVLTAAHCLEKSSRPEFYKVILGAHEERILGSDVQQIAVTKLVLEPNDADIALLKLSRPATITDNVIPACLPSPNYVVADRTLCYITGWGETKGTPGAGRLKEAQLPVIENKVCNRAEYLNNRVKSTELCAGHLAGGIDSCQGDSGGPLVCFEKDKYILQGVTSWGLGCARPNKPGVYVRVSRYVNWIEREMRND
Chain of Kallikrein-1 (P06870 whole entry): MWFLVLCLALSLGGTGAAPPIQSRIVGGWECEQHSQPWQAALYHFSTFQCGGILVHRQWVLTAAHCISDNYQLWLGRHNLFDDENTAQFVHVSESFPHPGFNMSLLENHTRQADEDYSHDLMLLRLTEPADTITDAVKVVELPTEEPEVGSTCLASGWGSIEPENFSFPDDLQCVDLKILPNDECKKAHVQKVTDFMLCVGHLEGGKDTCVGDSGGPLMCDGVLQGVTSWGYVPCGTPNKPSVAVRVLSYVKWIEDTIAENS

`NC(N)=NCCCC(NC(=O)[C@@H]1CCCN1C(=O)[C@H](N)Cc1ccccc1)C(=O)CCC(=O)N1CCCCC1` (stereo partly specified) yielded a TT in the test listed under Homo sapiens [1] of 4.9 µM.

On Prothrombin, `NC(N)=NCCCC(NC(=O)[C@@H]1CCCN1C(=O)[C@H](N)Cc1ccc2ccccc2c1)C(=O)CCC(=O)N1CCCCC1` (stereo partly specified) displayed a Ki of 2.28 µM.

As to `NC(N)=NCCCC(NC(=O)[C@@H]1CCCN1C(=O)[C@H](N)C(c1ccccc1)c1ccccc1)C(=O)CCC(=O)N1CCCCC1.O=C(O)C(F)(F)F.O=C(O)C(F)(F)F` (stereo partly specified), the Ki was found to be 149 µM at Coagulation factor X; 199 µM at Kallikrein-1; 157 µM at Plasminogen; 0.2 µM at Prothrombin; 494 µM in test [3]. In addition, in the test listed under Homo sapiens [1], the TT was determined as 0.65 µM. Also, the APTT in the test listed under Homo sapiens [2] worked out at 8 µM.

In the test filed under Homo sapiens [1], `NC(N)=NCCCC(NC(=O)[C@@H]1CCCN1C(=O)[C@@H](N)C(c1ccccc1)c1ccccc1)C(=O)CCC(=O)N1CCCCC1.O=C(O)C(F)(F)F.O=C(O)C(F)(F)F` (stereo partly specified) registered a TT of 7.5 µM. Moreover, in the test listed under Homo sapiens [2], the APTT was found to be 100 µM. The same compound returned a Ki at Prothrombin of 1.7 µM.

In the case of `NC(N)=NCCCC(NC(=O)[C@@H]1CCCN1C(=O)C(N)Cc1ccc2ccccc2c1)C(=O)CCC(=O)N1CCCCC1.O=C(O)C(F)(F)F.O=C(O)C(F)(F)F` (stereo partly specified), in the test filed under Homo sapiens [1], the TT turned out to be 90 µM. Moreover, the affinity on Prothrombin corresponds to a Ki of 11.6 µM.

As for `NC(N)=NCCCC(NC(=O)[C@@H]1CCCN1C(=O)C(N)C(c1ccccc1)c1ccccc1)C(=O)CCC(=O)N1CCCCC1.O=C(O)C(F)(F)F.O=C(O)C(F)(F)F` (stereo partly specified), the APTT in the test filed under Homo sapiens [2] was found to be 45 µM. Affinity on Prothrombin was put at a Ki of 0.6 µM.
